Measured values as given in patent US8445500B2, “Pesticidal compositions” (Dow AgroSciences, LLC., priority 2007, dated 2013).

What was measured:
Format in all cases: in vivo
[1] = test system: Green Peach Aphid Myzus persicae; assay: Insecticidal assay 15, green peach aphid, foliar spray on cabbage seedlings; details: M. persicae on cabbage seedlings; 50 and 5 parts per million spray solutions; assessed 3 days after treatment
Procedure: 15. Insecticidal Assay for Green Peach Aphid Myzus persicae:
Objective: To assess the insecticidal activity of compounds against M. persicae through contact and ingestion.
(§1) Formulation and application: One (1) milligram of each technical synthetic organic compound was dissolved in 1 milliliters of a 90:10 acetone:ethanol solvent. This 1 milliliter of chemical solution was added to 19 milliliters of distilled water containing 0.05% Tween 20 surfactant to produce a 50 parts per million spray solution. A 5 part per million solution was then prepared from the 50 part per million stock.
Test unit preparation and infestation: Cabbage seedlings, with 2 to 3 first true leaves emerged (12 days after planting) are culled to 1 plant per 3 inch pot. Treatments consisted of 4 replicates. Four days prior to application, heavily infested colony turnip leaves are shaken above the untreated plants. Shaking dislodges the aphids and they migrate to succulent plant material. Plants are examined to ensure even infestation prior to application.
(§2) Application: The plants are sprayed on both sides of all leaves with a hand-held atomizing sprayer until solutions are completely used. […]
Holding and assessment: The plants are allowed to air dry and are then held for 3 days in a controlled room at 26° C. and 40% relative humidity. 3 days after treatment the aphids are assessed for insecticidal effects.

[2] = test system: Beet Armyworm Spodoptera exigua; assay: Insecticidal assay 7, beet armyworm, diet cups; details: S. exigua second instar; 250 microliters of 400 ppm and 25 ppm solutions on diet in cups; assessed 5 days after infestation
Procedure: 7. Insecticidal Assay for Beet Armyworm Spodoptera exigua:
Objective: To assess the insecticidal activity of compounds against S. exigua, through contact and ingestion.
Test unit preparation: 8 milliliters of lepidopteran diet is dispensed into one ounce clear plastic portion cups. The diet is allowed to cool before storage or use.
Formulation and application: Eight milligrams of technical compound is dissolved in 20 milliliters of 2:1 acetone:tap water diluent to form a 400 ppm solution. An aliquot of this solution is also used to prepare a 25 parts per million concentration. 250 microliters of each solution is then pipetted onto the surface the diet in each cup. Each treatment is replicated 10 times.
Infestation: Once the treated cups have dried, a single second-instar beet armyworm is placed on the treated diet in each cup.
Holding and assessment: Treated and infested diet cups or are capped and then held in a chamber at 25° C. and 50% relative humidity. 14-hours light:10-hours dark. 5 days after infestation the larvae are assessed for insecticidal effects.

[3] = test system: Yellow Fever Mosquito Aedes aegypti; assay: Insecticidal assay 4, yellow fever mosquito larvae, 96-well plate; details: A. aegypti first instar larvae in water; 1.5 microliters of 4 micrograms per microliter in DMSO per well; assessed after 72 hours at 22° C.
Source text: 4. Insecticidal Assay for Yellow Fever Mosquito Aedes aegypti:
Objective: To evaluate the insecticidal activity of compounds against A. aegypti larvae through contact and ingestion.
Test unit preparation: Empty, 96-well microtiter plates are loaded onto a robotic dispensing system prior to application.
Formulation and application: Compounds are formulated in dimethyl sulfoxide at 4-micrograms per microliter. A robotic system dispenses 1.5 microliters of each formulated experimental solution into each well of an empty, 96-well microtiter plate. Each treatment is replicated 3 times.
Infesting: Subsequent to application, recently hatched, mosquito larvae are suspended in water containing 0.4% mosquito diet (1:3 mix of brewers yeast to liver powder). A robotic system dispenses aliquots of this aqueous solution containing 5-8 first instar mosquitoes into each well of the treated plates.
Holding and assessment: After infestation, the plates are covered with a matching clear plastic lid. Infested plates are stacked and held in an incubator at 22° C. for 72 hours. At assessment, cells are examined by means of a dissecting microscope for insecticidal effects.

[4] = test system: Corn Earworm Helicoverpa zea; assay: Insecticidal assay 11, corn earworm, 128 well bioassay trays; details: H. zea second instar; 50 microliters of 1 milligram per milliliter stock or serial dilutions on diet per well; assessed 5 days after infestation
Procedure: 11. Insecticidal Assay for Corn Earworm Helicoverpa zea:
Objective: To assess the insecticidal activity of compounds against H. zea, through contact and ingestion.
Test unit preparation: 128 well bioassay trays are prepared by injecting each well with approximately 1 milliliter of prepared lepidopteran diet. Trays are allowed to dry prior to use.
Compound formulation and application: A 1 milligram per milliliter, stock solution is prepared for each compound by adding 2 milliliters of acetone/water diluent (9:1) to a vial containing 2 milligrams of technical compound. From this stock solution, additional doses may be produced through serial dilution. Once the appropriate concentrations have been prepared, 50 microliters of each solution is applied to the surface of the diet in each of 8 wells. Upon completing application, the trays are allowed to dry.
Infestation: Once dry, each well is infested with a single second instar corn earworm. Infested wells are sealed with self sticking, ventilated plastic covers.
Holding and assessment: After infestation and sealing, the trays are placed in a growth chamber at 25 C and 40% relative humidity. 5 days after infestation the larvae are assessed for insecticidal effects.

[5] = test system: Cotton Aphid Aphis gossypii; assay: Insecticidal assay 14, cotton aphid, foliar spray on squash; details: A. gossypii all life stages on squash; 50 and 5 parts per million spray solutions; assessed 3 days after treatment
Procedure: 14. Insecticidal Assay for Cotton Aphid Aphis gossypii:
Objective: To assess the insecticidal activity of compounds against A. gossypii through contact and ingestion.
as §1
Test unit preparation and infestation: One week old ‘Crookneck’ squash plants, trimmed to one cotyledon per plant, are infested with cotton aphids (all life stages). Sections of heavily infested colony squash leaves were placed on the untreated squash cotyledons 16-20 hrs prior to spraying. As the infested sections dried out, the aphids moved to the succulent plant material. Plants are examined to ensure even infestation prior to application.
as §2
Holding and assessment: The plants are allowed to air dry and are then held for 3 days in a controlled room at 26° C. and 40% relative humidity prior to grading. 3 days after treatment the aphids are assessed for insecticidal effects.

[6] = test system: German Cockroach Blattella germanica; assay: Insecticidal assay 12, German cockroach, 96-well diet plate; details: B. germanica second instar; 2 microliters of 4-microgram/microliter in DMSO per well on diet; assessed after 6 and 13 days at 29° C.
Procedure: 12. Insecticidal Assay for German Cockroach Blattella germanica: Objective: Assessment of the insecticidal activity of compounds against B. germanica through contact and ingestion. Test unit preparation: A robotic system dispenses 100 microliters of freshly prepared artificial diet into each well of a 96-well microtiter plate. The plates are held overnight at 22° C. to allow proper cooling and drying prior to treatment and infestation. Compound formulation and application: Compounds are formulated in dimethyl sulfoxide at 4-microgram/microliter. A robotic system automatically dispenses 2 microliters of each compound solution into individual wells of the prepared test units. Each treatment is replicated 3 times. After application, plates are allowed to dry 5-6 hours in a fume hood. When dry, the plates are covered with a matching lid and held overnight in a sealed container prior to infestation. Infestation: One day after application, each treated well is infested with 3-5, second instar cockroaches. Holding and assessment: Once infested, the plates are covered with a clear plastic lid. The plates are stacked and held in an incubator at 29° C. After 6 and 13 days respectively, each well is examined by means of a dissecting microscope for insecticidal effects.

Measured: insecticidal activity

N#Cc1c(NNc2c(Cl)cc(C(F)(F)F)cc2Cl)nc(C(F)(F)F)nc1C(F)(F)F [Compound 11, 4-[N′-(2,6-dichloro-4-trifluoromethyl-phenyl)-hydrazino]-2,6-bis-trifluoromethyl-pyrimidine-5-carbonitrile]
significant insecticidal activity: all assays above
